This is an account of results in patent publication US9708293B2, “N-(pyridin-2-yl)pyrimidin-4-amine derivatives containing a sulfone group” (BAYER PHARMA AKTIENGESELLSCHAFT, priority 2012, dated 2017).

The structures appear in SMILES notation.

One assay has as its target T1, CDK9/CycT1 (Homo sapiens, UniProt P50750).
T1 construct: Recombinant full-length His-tagged human CDK9 and CycT1; His; purchased Invitrogen PV4131; host or cells: insect cells
In words: CDK9/CycT1 kinase assay (Method 1a). The conditions noted are these: 10 μM ATP. Format: biochemical. From the text: 1a. CDK9/CycT1 Kinase Assay:
CDK9/CycT1—inhibitory activity of compounds of the present invention was quantified employing the CDK9/CycT1 TR-FRET assay as described in the following paragraphs:
Recombinant full-length His-tagged human CDK9 and CycT1, expressed in insect cells and purified by Ni-NTA affinity chromatography, were purchased from Invitrogen (Cat. No PV4131). As substrate for the kinase reaction biotinylated peptide biotin-Ttds-YISPLKSPYKISEG (C-terminus in amid form) was used which can be purchased e.g. form the company JERINI Peptide Technologies (Berlin, Germany). For the assay 50 nl of a 100 fold concentrated solution of the test compound in DMSO was pipetted into a black low volume 384 well microtiter plate (Greiner Bio-One, Frickenhausen, Germany), 2 μl of a solution of CDK9/CycT1 in aqueous assay buffer [50 mM Tris/HCl pH 8.0, 10 mM MgCl2, 1.0 mM dithiothreitol, 0.1 mM sodium ortho-vanadate, 0.01% (v/v) Nonidet-P40 (Sigma)] were added and the mixture was incubated for 15 min at 22° C. to allow pre-binding of the test compounds to the enzyme before the start of the kinase reaction. Then the kinase reaction was started by the addition of 3 μl of a solution of adenosine-tri-phosphate (ATP, 16.7 μM=>final conc. in the 5 μl assay volume is 10 μM) and substrate (1.67 μM=>final conc. in the 5 μl assay volume is 1 μM) in assay buffer and the resulting mixture was incubated for a reaction time of 25 min at 22° C. […]
(§1) The resulting mixture was incubated 1 h at 22° C. to allow the formation of complex between the phosphorylated biotinylated peptide and the detection reagents. Subsequently the amount of phosphorylated substrate was evaluated by measurement of the resonance energy transfer from the Eu-chelate to the streptavidine-XL. Therefore, the fluorescence emissions at 620 nm and 665 nm after excitation at 350 nm was measured in a HTRF reader, e.g. a Rubystar (BMG Labtechnologies, Offenburg, Germany) or a Viewlux (Perkin-Elmer). […]

For another assay, the target named is T2, CDK2/CycE (Homo sapiens, UniProt P24941).
T2 construct: GST; purchased ProQinase GmbH (Freiburg, Germany); host or cells: insect cells (Sf9)
In words: CDK2/CycE kinase assay (Method 2a). The format is biochemical. The settings on record: 10 μM ATP.
Description: 2a. CDK2/CycE Kinase Assay:
CDK2/CycE-inhibitory activity of compounds of the present invention was quantified employing the CDK2/CycE TR-FRET assay as described in the following paragraphs:
Recombinant fusion proteins of GST and human CDK2 and of GST and human CycE, expressed in insect cells (Sf9) and purified by Glutathion-Sepharose affinity chromatography, were purchased from ProQinase GmbH (Freiburg, Germany). As substrate for the kinase reaction biotinylated peptide biotin-Ttds-YISPLKSPYKISEG (C-terminus in amid form) was used which can be purchased e.g. form the company JERINI Peptide Technologies (Berlin, Germany).
For the assay 50 nl of a 100 fold concentrated solution of the test compound in DMSO was pipetted into a black low volume 384 well microtiter plate (Greiner Bio-One, Frickenhausen, Germany), 2 μl of a solution of CDK2/CycE in aqueous assay buffer [50 mM Tris/HCl pH 8.0, 10 mM MgCl2, 1.0 mM dithiothreitol, 0.1 mM sodium ortho-vanadate, 0.01% (v/v) Nonidet-P40 (Sigma)] were added and the mixture was incubated for 15 min at 22° C. to allow pre-binding of the test compounds to the enzyme before the start of the kinase reaction. Then the kinase reaction was started by the addition of 3 μl of a solution of adenosine-tri-phosphate (ATP, 16.7 μM=>final conc. in the 5 μl assay volume is 10 μM) and substrate (1.25 μM=>final conc. in the 5 μl assay volume is 0.75 μM) in assay buffer and the resulting mixture was incubated for a reaction time of 25 min at 22° C. The concentration of CDK2/CycE was adjusted depending of the activity of the enzyme lot and was chosen appropriate to have the assay in the linear range, typical concentrations were in the range of 130 ng/mL. The reaction was stopped by the addition of 5 μl of a solution of TR-FRET detection reagents (0.2 μM streptavidine-XL665 [Cisbio Bioassays, Codolet, France] and 1 nM anti-RB(pSer807/pSer811)-antibody from BD Pharmingen [#558389] and 1.2 nM LANCE EU-W1024 labeled anti-mouse IgG antibody [Perkin-Elmer, product no. AD0077]) in an aqueous EDTA-solution (100 mM EDTA, 0.2% (w/v) bovine serum albumin in 100 mM HEPES/NaOH pH 7.0).
as §1, with “TR-FRET” for “HTRF”, “(Perkin-Elmer). The ratio of the emissions at 665 nm and at […] was taken as the measure for the amount of phosphorylated substrate.” for “(Perkin-Elmer).”

T1 sequence (P50750 whole entry): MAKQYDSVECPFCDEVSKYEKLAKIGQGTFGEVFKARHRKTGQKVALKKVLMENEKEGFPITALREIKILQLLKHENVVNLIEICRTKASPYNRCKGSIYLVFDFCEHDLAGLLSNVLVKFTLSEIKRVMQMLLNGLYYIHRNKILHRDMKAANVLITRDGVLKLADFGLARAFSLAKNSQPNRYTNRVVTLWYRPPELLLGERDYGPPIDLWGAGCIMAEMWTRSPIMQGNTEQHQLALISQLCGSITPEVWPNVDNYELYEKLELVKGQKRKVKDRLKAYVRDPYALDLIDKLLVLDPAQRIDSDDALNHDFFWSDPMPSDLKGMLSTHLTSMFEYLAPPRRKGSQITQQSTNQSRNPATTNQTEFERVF
T1 sequence (O60563 whole entry partner): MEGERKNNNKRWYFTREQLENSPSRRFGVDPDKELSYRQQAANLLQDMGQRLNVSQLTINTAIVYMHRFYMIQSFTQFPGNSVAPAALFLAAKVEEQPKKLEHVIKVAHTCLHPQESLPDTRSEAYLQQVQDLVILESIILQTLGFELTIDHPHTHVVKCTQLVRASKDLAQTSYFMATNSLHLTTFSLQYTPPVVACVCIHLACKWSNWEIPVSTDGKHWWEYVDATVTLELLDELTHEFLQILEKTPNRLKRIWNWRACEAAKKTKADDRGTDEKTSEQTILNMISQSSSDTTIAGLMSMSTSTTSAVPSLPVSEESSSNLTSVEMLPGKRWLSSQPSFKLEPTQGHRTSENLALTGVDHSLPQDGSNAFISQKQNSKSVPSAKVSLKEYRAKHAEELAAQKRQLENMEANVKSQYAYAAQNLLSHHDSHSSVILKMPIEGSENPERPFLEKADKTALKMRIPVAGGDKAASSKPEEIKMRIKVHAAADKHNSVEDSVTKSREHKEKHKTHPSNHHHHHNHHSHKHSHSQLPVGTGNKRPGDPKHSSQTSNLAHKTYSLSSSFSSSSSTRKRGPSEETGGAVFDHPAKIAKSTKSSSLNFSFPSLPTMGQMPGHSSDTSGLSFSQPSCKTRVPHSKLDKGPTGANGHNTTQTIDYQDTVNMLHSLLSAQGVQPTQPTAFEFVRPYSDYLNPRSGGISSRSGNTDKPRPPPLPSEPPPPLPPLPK

As for `COc1cc(F)ccc1-c1cc(Nc2cc(CS(C)(=O)=O)cc(C(F)(F)F)n2)ncn1` [Example 3, 6-(4-Fluoro-2-methoxyphenyl)-N-{4-[(methylsulfonyl)methyl]-6-(trifluoromethyl)pyridin-2-yl}pyrimidin-4-amine], the IC50 against CDK9/CycT1 stood at 4 nM; on CDK2/CycE it was 73 nM.
For `COc1cc(F)ccc1-c1cc(Nc2cc(CS(C)(=O)=O)cc(F)n2)ncn1` [Example 4, 6-(4-Fluoro-2-methoxyphenyl)-N-{6-fluoro-4-[(methylsulfonyl)methyl]pyridin-2-yl}pyrimidin-4-amine], in that order: 3 nM and 92 nM.
Turning to `COc1cc(F)ccc1-c1cc(Nc2cc(CS(C)(=O)=O)cc(C)n2)ncn1` [Example 2, 6-(4-Fluoro-2-methoxyphenyl)-N-{6-methyl-4-[(methylsulfonyl)methyl]pyridin-2-yl}pyrimidin-4-amine], the IC50 at CDK2/CycE turned out to be 90 nM.
With `COc1cc(F)ccc1-c1cc(Nc2cc(CS(C)(=O)=O)ccn2)ncn1` [Example 1, 6-(4-Fluoro-2-methoxyphenyl)-N-{4-[(methylsulfonyl)methyl]pyridin-2-yl}pyrimidin-4-amine], the concentration for half-maximal inhibition (IC50) against CDK9/CycT1 is 3 nM; against CDK2/CycE it was 280 nM.

As usually defined, the IC50 is the concentration at which inhibition is half-maximal.
